{"source": "patent US20230273228A1", "about": "“Diagnostic Method and Compounds for the Treatment of Infections Caused by a Pathogen” (priority 2020, published 2023)", "type_in_all_cases": "in vivo, Golden Syrian Hamster", "key": {"SARS-CoV-2 [1]": {"test_system": "SARS-CoV-2", "assay": "Body weight variation of hamsters infected with SARS-CoV-2"}, "TNF-α": {"test_system": "TNF-α", "assay": "Cytokine/chemokine profile by qRT-PCR in lung tissues and blood of SARS-CoV-2 infected hamsters"}, "SARS-CoV-2 [2]": {"test_system": "SARS-CoV-2", "assay": "Viral load determination by quantitative real-time RT-PCR in tissues of infected hamsters"}}, "data": [{"smiles": "CC/C=C\\C/C=C\\C[C@H](O)\\C=C/C=C/C=C/[C@H](O)C/C=C\\CCC(=O)OC", "note": "[MaR1 ME, Methyl 7R,14S-dihydroxy-4Z,8E,10E,12Z,16Z,19Z-docosahexaenoate]", "values": [{"measurement": "Improvement in weight loss, dependence on dose", "setting": "SARS-CoV-2 [1]; MaR1 ME 0.05 and 0.5 mg/kg i.p. twice daily", "value": "dose dependent"}, {"measurement": "Loss of body weight compared with infected untreated animals", "setting": "SARS-CoV-2 [1]; SARS-CoV-2 infected hamsters, MaR1 ME 0.05 and 0.5 mg/kg i.p., Lipinova 1.20 mg/kg by gavage, twice daily", "value": "decreases significantly"}, {"measurement": "Body weight loss", "setting": "SARS-CoV-2 [1]; highest dose of MaR1 ME (0.5 mg/kg i.p. twice daily from day 2 post inoculation), SARS-CoV-2 infected hamsters", "value": "less than 5%"}, {"measurement": "Impact on the chemokine and cytokine profile in infected animals", "setting": "TNF-α", "value": "significant impact"}, {"measurement": "Levels of TNF-α in the lungs compared with untreated animals", "setting": "TNF-α; lung tissue, 4, 7 and 14 dpi", "value": "significantly lower"}, {"measurement": "Impact on viral load in tissues", "setting": "SARS-CoV-2 [2]", "value": "significant impact"}, {"measurement": "Viral load in the lungs", "setting": "SARS-CoV-2 [2]; after a few days of treatment", "value": "significantly reduced"}]}]}
